In patent US20250381179A1, “CHROMAN-BASED COMPOUNDS FOR TREATING CANCER” (priority 2024, published 2025):

Test: Phase 1 study: safety and tolerability (TEAEs, NCI CTCAE v5.0)
Conditions: 100 mg QD (N = 4)
Description: The study employed an open-label, 3+3 design, with the option of adding backfill patients to each cohort cleared and deemed safe. […] Tumor responses were assessed every 2 cycles using RECIST v1.1 criteria. […] The study also involves an ongoing dose escalation study where participants receive 100 mg, 200 mg, 300 mg, 400 mg, and 600 mg once daily (QD) dose levels.
Safety was assessed through the analysis of the reported incidence of treatment-emergent AEs. Treatment-emergent AEs are those with an onset on or after the initiation of therapy and will be graded according to NCI CTCAE Version 5.0. Other safety endpoints, including laboratory results, vital signs, and ECG findings, were summarized for all patients in the Safety set.

O=C1CC[C@H](N2Cc3cc(N4CCN(CC5CCN(c6ccc([C@@H]7c8ccc(O)cc8OC[C@@H]7c7ccccc7)cc6F)CC5)CC4)ccc3C2=O)C(=O)N1 [compound (1-g), (S)-3-(5-(4-((1-(2-fluoro-4-((3S,4R)-7-hydroxy-3-phenylchroman-4-yl)phenyl)piperidin-4-yl)methyl)piperazin-1-yl)-1-oxoisoindolin-2-yl)piperidine-2,6-dione]
0 n (%): TEAE: Abdominal Distension | TEAE: Acute Kidney Injury | TEAE: Adrenal Insufficiency | TEAE: Alopecia | TEAE: Anaemia | TEAE: Anxiety | TEAE: Arthralgia | TEAE: Axillary Vein Thrombosis | TEAE: Back Pain | TEAE: Breast Pain | TEAE: Constipation | TEAE: Cough | TEAE: Dizziness | TEAE: Dysgeusia | TEAE: Dyspnoea | TEAE: Dysuria | TEAE: Eructation | TEAE: Flatulence | TEAE: Fracture | TEAE: Fungal Infection | TEAE: Haematoma | TEAE: Hyperglycaemia | TEAE: Hypokalaemia | TEAE: Hypotension | TEAE: Influenza Like Illness | TEAE: Lower Respiratory Tract Congestion | TEAE: Lymphocyte Count Decreased | TEAE: Muscle Spasm | TEAE: Muscular Weakness | TEAE: Musculoskeletal Stiffness | TEAE: Nail Disorder | TEAE: Nasal Congestion | TEAE: Oedema Peripheral | TEAE: Ophthalmic Migraine | TEAE: Oral Pain | TEAE: Pain In Extremity | TEAE: Pharyngitis | TEAE: Platelet Count Decreased | TEAE: Pleural Effusion | TEAE: Productive Cough | TEAE: Rhinitis Allergic | TEAE: Seizure | TEAE: Sepsis | TEAE: Urinary Tract Infection | TEAE: Vaginal Haemorrhage | TEAE: Vomiting | related TEAE: Alopecia | related TEAE: Arthralgia | related TEAE: Constipation | related TEAE: Dysgeusia | related TEAE: Eructation
4 (100) n (%): Patients with Any TEAE
1 (25.0) n (%): TEAE: Abdominal Pain | TEAE: Basal Cell Carcinoma | TEAE: Confusional State | TEAE: Covid-19 Pneumonia | TEAE: Diarrhoea | TEAE: Dyspepsia | TEAE: Fall | TEAE: Fatigue | TEAE: Hot Flush | TEAE: Hyperhidrosis | TEAE: Insomnia | TEAE: Nausea | TEAE: Neutrophil Count Decreased | TEAE: Pneumonia | TEAE: Rash Maculo-Papular | TEAE: Rib Fracture | TEAE: Tremor | TEAE: Upper Respiratory Tract Infection | related TEAE: Diarrhea
3 (75.0) n (%): TEAE: Dehydration
2 (50.0) n (%): Patients with Any Compound (1-g) related TEAE
